Measurements published in patent US20250002477A1, “BENZIMIDAZOLE COMPOUND OR SALT THEREOF, CANINE FILARIASIS CONTROL AGENT CONTAINING SAME, AND METHOD OF USE THEREOF” (NIHON NOHYAKU CO., LTD., priority 2021, published 2025).

Tested on: L-1 stage larvae of canine filariae (Dirofilaria immitis)
Test: Impact evaluation test on larvae motility of canine filariae
Details: final concentration of 50 ppm, 3 days, corrected for DMSO solution alone

Clc1ccc(CCc2cn(-c3nc4ccccc4[nH]3)cn2)c(Cl)c1 [Compound 1-1, 2-(4-(2-(2,4-dichlorophenyl)ethyl)-1H-imidazol-1-yl)benzimidazole]
activity level (corrected motility impediment rate): A (the corrected motility impediment rate is 100%)
